Format in all cases: in vivo
The test system of data set [1] is Brown Dog Ticks, Rhipicephalus sanguineus. From the text:
The following protocol was employed to test compounds of this invention for toxicity (mortality) against ticks. There were 5 replicates of 5 dog ticks for each treatment. […] Filter paper strips were laid on a sheet of aluminum foil and enough of each of the test sample was applied to thoroughly saturate the paper. The paper was then rolled and placed inside a glass shell vial as to line the sides of the vial. A small paper disc, also saturated with the test sample, was then placed at the bottom of the vial. Brown Dog Ticks, Rhipicephalus sanguineus, were then introduced into the vials which were covered with aluminum foil, the inside of which was painted with some of the test sample. The ticks remained in the vials, constantly exposed to the test samples, for the duration of the test. A small hole was poked through the foil for ventilation. Each control replicate was subjected to the same procedures outlined above, except that they were not treated. The controls were placed in the same area as the test replicates for the duration of the test. Mortality observations were made at 24 hours. Ticks were classified as alive (able to move normally), moribund (those classified as moribund will show some movement, but will not be able to crawl in a coordinated manner, or will be unable to right themselves if placed on their backs), or dead (no movement after physical stimuli). All dead ticks were confirmed by probing or agitation to make sure that they are unable to move; any that show movement visible to the naked eye were recorded as moribund. At 24 hours the tick mortality was 0% for the control, 100% for γ-dodecalactone, 100% for methyl apritone and 76% for methyl dihydrojasmonate.

For a further data set, the system named is stable flies. Kind of data set: Stable fly probing on treated warmed blood-filled membranes. The following applies: for Probes at 7% test compound: 7% in isopropyl alcohol on membrane; for Probes at 7% test compound / Probes at 15% test compound: twenty minutes, percent of control probes taken as 100%; for Probes at 15% test compound: 15% in isopropyl alcohol on membrane. As to the method:
Five replicates of 100 mixed-sex stable flies each were placed in screened cages. The cages were placed in such a way that the stable flies had access to five warmed, blood-filled membrane walls. The membranes were treated with methyl dihydrojasmonate, gamma-dodecalactone, methyl apritone, or DEET® all at 7% and at 15% in isopropyl alcohol, or isopropyl alcohol as a control. There were five replicates tested with a positional rotation of the repellent at each replicate. Fresh batches of stable flies were used for each replicate. Thus each test sample was tested on each of the five wells, which allowed any positional bias to be eliminated. The number of stable flies probing each well was recorded at two minute intervals for twenty minutes. The total number of probes on each well were tallied at the end of the twenty minute observation period and the average percentage repellency was calculated for each compound. An analysis of variance was conducted to compare the average number of probes on each treatment membrane. The number of probes for the control was taken as the 100% baseline and the percentage for the test compounds is the percent for the number of probes for the test compound compared to the number of control probes.

The next data set concerns Brown Dog Ticks. Kind of data set: Second repellent assay against Brown Dog Ticks. The following applies: 7% in isopropyl alcohol. As to the method:
Also, a second repellent assay was used to evaluate six test samples against Brown Dog Ticks. Five replicates of five ticks were given the opportunity to quest onto a vertical strip of untreated filter paper and then allowed to move upward toward a second vertical strip of filter paper treated with one of the six candidate repellents or DEET®. In the control situation, the second strip was treated with isopropanol. They were then observed for directional or behavioral changes caused in response to contact with the repellent. Ticks were recorded as either repelled or not repelled. Compounds were diluted in isopropyl alcohol. The percentages of ticks repelled are shown below in Table 6.

Another data set deals with sand flies P. papatasi. Kind of data set: Sand fly bite test on treated human skin with K&D module. To be noted: for percent biting, Treatment level 5%: 5% compound in isopropyl alcohol on human skin; for percent biting, Treatment level 5% / percent biting, Treatment level-10%: five minute exposure, percent of control biting taken as 100%; for percent biting, Treatment level-10%: 10% compound in isopropyl alcohol on human skin; for sand flies repelled: at 5%. The protocol: Control against sand flies was determined by the following protocol as generally described in J. Med. Entomol. 43 (6), 1248-1252 (2006). Volunteers wearing short pants were seated. Using a skin-marking template and a washable-ink marker, skin areas represented by 3- by 4-cm floor opening of six cells of a K&D module were outlined on the outer, top and inner thigh position of each leg of the volunteers. The six treated cell rectangles each represented a random block, and each volunteer had three blocks on each of two thighs. All treatments against the sand flies P. papatasi, were pipetted onto a 4- by 5-cm rectangular area (so the area of skin covered by a treatment exceeded the template marks by 0.5 cm in every direction) of the subjects' skin with 55 ul of isopropyl alcohol/treatment containing 10% or 5% compound/ul isopropyl alcohol. Treating a slightly larger area ensured that the areas beneath each K&D module contained only treated skin. Skin treated with isopropyl alcohol alone served as control. In all tests adjacent cells of the K&D module were supplied with ten sand flies. The sand fly charged K&D module was positioned over the treated skin areas and the trap doors of the K&D module above the areas were opened. After a five minute skin exposure the trap doors were closed. The number of sand fly bites was recorded for each cell. The percent biting is the percent compared to the biting for the control which was taken as 100%.

In the next data set the test system is German cockroaches. Kind of data set: German cockroach repellency, choice of food stations in arena. To be noted: 50% in acetone; at 4 hours. The protocol: The efficacy of compounds of this invention to control or repel German cockroaches was illustrated using the following protocol. One food pellet each was placed on a paper square (station) treated with one of the repellent materials. Materials were diluted to 50% in acetone and a straight acetone station was also used. Both stations were placed on the same side of the arena. Cockroaches were starved for 2 days and then released into the arena. They were given a choice to feed on either food pellet. A control arena with an acetone treated station and an untreated station was also used. The distribution of cockroaches within the arena was recorded at 30 minute intervals over 4 hours. Repellency at 4 hours was calculated by the number of cockroaches on the untreated station vs. the total number of cockroaches on the stations.

The subject of the next data set is house flies. Kind of data set: House fly repellency on treated filter paper food trays in cages. To be noted: over 6 hours. The protocol:
The bottom of each cage was lined with brown craft paper and divided into 4 equal quadrants. Each quadrant housed a makeshift filter paper food tray. Two of the four filter papers were treated with repellent and two treated with isopropanol. Control cages contained filter papers that were treated with 4 filter papers of isopropanol only. The number of flies resting on filter paper per quadrant was recorded every 30 minutes for a total of 6 hours. Cages were rotated to eliminate positional bias. […] Each of the test samples were diluted in isopropyl alcohol.

In the next data set the test system is Black Widow spiders. Kind of data set: Black Widow spider choice test in half-treated tube shelters. To be noted: 5% in isopropanol; location after 24 hours. The protocol:
Control against Black Widow spiders was determined using the following protocol. One test container containing two card stock tube shelters, one half treated with a test sample and the other half treated with isopropanol was prepared. A spider was introduced in the center of the tube. The spider was then given a choice to move to one end of the shelters. The following day, its location is recorded and compared to the results from a shelter containing untreated half-shelters.
On the day of the test one of the two shelters was sprayed with the test sample solution using a 2 oz pump spray bottle. Only the surfaces that the spider will most likely contact were treated. Therefore, only the inside of one of the shelter tubes, including the end disc (spiders will not be able to access the outside part of the shelter) were sprayed. The total amount of product was weighed and recorded. The treated surface was allowed to dry for a minimum of ½ hour, or until solvent could not be detected by smell. At this time the shelter tubes were assembled.
Card stock paper tube shelters were constructed from 2 half-letter sized sheets (5½″×8½″) of paper, rolled and taped together to form a short tube. One end of each was covered with a circle of card stock paper, while the other end was later taped to the open end of the other half sheet, forming one long tube. […] The solvent-treated half was labeled with a “C” on the inner and outer walls with a pencil or a pen with solvent resistant ink. Prior to forming the final tube shelter, a semi-circular hole was cut into one of the margins of each sheet such that, once the two tubes are taped together, the holes correspond to the top and at the junction of the tubes for introduction of the spiders.
Twenty-five arenas were prepared in this manner for each test sample. There were five replicates of five spiders. Twenty-five additional control arenas were also prepared. They were prepared the same way, except that areas to be sprayed were sprayed with isopropanol only.
Replicates of five spiders were selected for each test formulation and for the control. The specimens were visually examined for overall physical condition. […] The spiders were transferred directly into the holding vials using flexible forceps or with a little coaxing with an artist brush. Because of their cannibalistic tendencies, each vial contained only one spider. There they were held until the time for testing.
At the test start the spiders were placed directly in the middle, through the opening at the top of the shelter tube, and the opening covered, with only one spider per arena. […] They were left alone for 24 hours, after which time their location within the arena was recorded. Spiders present inside the shelter treated with the test repellent were considered tolerant.

Data set [2] deals with Brown Dog Ticks, Rhipicephalus sanguineus. The data set is described as follows: Brown Dog tick repellency on vertical filter paper strips. As to the method: Control against Brown Dog ticks was determined in the following protocol. Strips of filter paper, 1″ by 3″, were placed on a sheet of aluminum foil treated with 1 ml each of the test samples and allowed to dry. The end of each treated strip was stapled to an untreated filter paper strip of the same dimensions. The stapled strips were suspended in a vertical position above a tray, with the treated half attached to a horizontal glass rod by a metal clip. The untreated half was lowered when the strip is vertically positioned. Brown Dog Ticks, Rhipicephalus sanguineus, mixed sexes, were purchased from a supplier. Five replicates of five ticks for each treatment regimen plus five additional replicates for the control were employed. Ticks shipped to the test site were given at least one day to acclimate to “shipping stress” before they are used for testing. Those tick specimens which appeared sluggish or moribund were not used. Suitable ticks were removed from their containers and allowed to quest on the free end of the test strip. Once present on the strip they were watched as they crawled up the strip until they contacted the treated paper. If the tick, once in contact with the treated zone, either turned around, stopped without proceeding further, or dropped off, the tick is classified as repelled. If it continued to crawl onto the treated strip, even after it stopped briefly, that tick was classified as not repelled. A maximum observation time of 1 minute per replicate was allowed for ticks to respond after reaching the treated area, but during the test, if more time was needed, the maximum observation time may have been adjusted at the discretion of the study coordinator. At the end of the observation time, the number of ticks repelled was recorded. Tick behavior was recorded when applicable, such as whether increased number of affected or repelled ticks occurred in successive replicates over time. After the completion of each treatment parameter, the testing chamber was ventilated for five minutes by turning on the exhaust fan and opening the door leading into the chamber. Ticks were used only once. Average number of ticks displaying each behavior category were calculated and compared to the control replicates.

Data set [3] concerns brown marmorated stink bugs (BMSB). Kind of data set: Brown marmorated stink bug repellency, treated vs. untreated filter paper arena. As to the method:
The two semi-circle filter papers were aligned together to completely cover the bottom of the test arena. Control arenas were also set up in a similar fashion except both were treated with acetone. Five replicates of 5 BMSB were then introduced into both the treated and control arenas. By releasing them in the center of the arena, the BMSB were presented with a choice of treated vs. untreated substrate (or untreated vs. untreated in the control arenas). The repellency of the BMSB was recorded at 24 hours post-treatment.

In the next data set the test system is Pharaoh ants. Kind of data set: Pharaoh ant behaviour at treated-untreated interface on poster board. To be noted: 50% in acetone; 5 minutes after release. The protocol: Pharaoh ants were tested using the following protocol. The side of a 17″×23″ rectangular sheet of poster board was sprayed with the test sample or acetone, except for a region within a 6″ circle. The treated poster board was allowed to dry. Five worker ants were placed in the center of the 6″ untreated circle and allowed to wander outside the circle onto the treated surface. The behavior of the ants at the treated-untreated interface was recorded for 5 minutes after release. Test compounds were diluted in acetone.

The values that follow come from US10785978B2, “Control and repellency of biting flies, house flies, ticks, ants, fleas, biting midges, cockroaches, spiders and stink bugs” (priority 2012, dated 2020).

`CCCCCC1CC(C)=CC(O)C1` (stereo not shown) [3-Methyl-5-Pentyl-2-cyclohexenol, 3-methyl-5-pentyl-2-cyclohexenol]: in data set [1] (10%, constant exposure 24 hours), the “morbidity at 24 hr” value is recorded as 100%. Moreover, the “24 hr mortality (%)” value in [1] (in vivo) was 12%.

Take `CCN(CC)C(=O)c1cccc(C)c1` [DEET ®, N,N-Diethyl-m-toluamide, reference compound]: in the data set on stable flies, the “Probes at 7% test compound” value is 45.9% and the “Probes at 15% test compound” value came to 16.2%. The “Mean % repelled” value in the data set on Brown Dog Ticks was found to be 96%.

`CCCCCC1C(O)CCC1CC(=O)OC` (stereo not shown) [Methyl dihydrojasmolate]: in the data set with sand flies P. papatasi, the “percent biting, Treatment level 5%” value was 0%; the “percent biting, Treatment level-10%” value is 0%; the sand flies repelled came out at 100%.

On to `CCCCCC1C(=O)CCC1CC(=O)OCC=C(C)C` (stereo not shown) [Prenyl dihydrojasmonate], for which the “% Repellency 4 hr” value in the data set on German cockroaches came to 87.5%.

As for `CCCCCCCCCC1CCCC(=O)O1` (stereo not shown) [delta Tetradecalactone], the “Overall % Repellency” value in the data set with house flies (5% in isopropyl alcohol) was found to be 76%.

Consider `CCCCCCCCCCCC1CCC(=O)O1` (stereo not shown) [gamma Pentadecalactone], for which, in the data set with house flies (7.5% in isopropyl alcohol), the “Overall % Repellency” value turned out to be 87%. Also, the “% Repellency” value in the data set with Black Widow spiders was 75.0%.

For the compound `CCCCCCCCCC1CCC(=O)O1` (stereo not shown) [gamma Tridecalactone, gamma-tridecalactone], the “Overall % Repellency” value in the data set with house flies (5% in isopropyl alcohol) is reported as 80%; in the data set on house flies (7.5% in isopropyl alcohol), 94%. The compound also returned a Mean % repelled in [2] (7.5% in isopropyl alcohol) of 100%. Moreover, in the data set with Black Widow spiders, the “% Repellency” value stood at 75.0%. Also, the “% Repellency at 24 hours” value in data set [3] (5% in isopropyl alcohol) came out at 70%.

Take `CCCCCCCCC1CCC(=O)O1` (stereo not shown) [gamma-Dodecalactone, gamma-dodecalactone]: in the data set with stable flies, the “Probes at 7% test compound” value was 6.2% and the “Probes at 15% test compound” value stood at 3.6%. The “repellency compared with DEET” value in the data set on stable flies (at the same concentrations (7% and 15%)) is on record as “repelled better than DEET®”. Moreover, the “Overall % Repellency” value in the data set on house flies (7.5% in isopropyl alcohol) is 100%. The Mean % repelled in data set [2] (Neat) was 100%. Moreover, the ticks repelled in data set [2] (concentration not given) is recorded as 100%. Also, in data set [1] (in vivo), the “24 hr mortality (%)” value was 100% and the “tick mortality at 24 hours” value was found to be 100%. Further, in the data set with Pharaoh ants, the “% crossed without stopping” value is given as 82%; the “% slowed, but crossed” value turned out to be 8%; the “% stopped at interface” value came out at 10%. Besides, the “% Repellency 4 hr” value with German cockroaches came out at 96.6%. In data set [3] (10% in isopropyl alcohol), the “% Repellency at 24 hours” value stood at 100%.

Turning to Farnesyl cyclopentanone, the “% Repellency 4 hr” value in the data set on German cockroaches was found to be 100%.

On to Methyl apritol, for which, in the data set with sand flies P. papatasi, the “percent biting, Treatment level 5%” value was 12.5%; the “percent biting, Treatment level-10%” value is reported as 0%; the sand flies repelled stood at 87.5%.
